Results from the SangsterLogP compilation.

| Compound | logP |
| --- | --- |
| CCCOc1cc(C)c(C(=O)C(C)CN2CCCCC2)c(C)c1 (stereo not drawn) | 4.11 |
| Cc1ccc(C(=O)CCN2CCCCC2)cc1 | 3.55 |
| Cc1ccccc1C(=O)CCN1CCCCC1 | 3.54 |
| CCCOc1ccc(C(=O)C(C)CN2CCCCC2)c(C)c1 (stereo not drawn) | 4 |
| Cc1cccc(C)c1C(=O)C(C)CN1CCCCC1 (stereo not drawn) | 3.81 |
| Cc1cccc(C)c1C(=O)CCN1CCCCC1 | 3.53 |
| Cc1ccc(C(=O)CCN2CCCCC2)c(C)c1 | 3.71 |
| Cc1ccc(C(=O)C(C)(C)CN2CCCCC2)cc1 | 3.92 |
| Cc1ccc(C(=O)C(C)CN2CCCCC2)c(C)c1 (stereo not drawn) | 3.85 |
| Cc1cccc(C)c1C(=O)C(C)(C)CN1CCCCC1 | 4.2 |
| Cc1cc(C)c(C(=O)C(C)CN2CCCCC2)c(C)c1 (stereo not drawn) | 3.98 |
| CCCOc1cc(C)c(C(=O)CCN2CCCCC2)c(C)c1 | 3.84 |
| CC(C)(CN1CCCCC1)C(=O)c1ccccc1 | 3.78 |
| CC(CN1CCCCC1)C(=O)c1ccccc1 (stereo not drawn) | 3.51 |

Second part, the molecule after the results:

| logP | Compound |
| --- | --- |
| 3.7 | Cc1cc(C)c(C(=O)CCN2CCCCC2)c(C)c1 |
| 3.88 | CCCOc1ccc(C(=O)CCN2CCCCC2)c(C)c1 |
| 3.69 | Cc1ccccc1C(=O)C(C)CN1CCCCC1 (stereo not drawn) |
| 3.65 | Cc1ccc(C(=O)C(C)CN2CCCCC2)cc1 (stereo not drawn) |
| 4.36 | Cc1cc(C)c(C(=O)C(C)(C)CN2CCCCC2)c(C)c1 |
| 3.81 | CCCOc1ccc(C(=O)C(C)CN2CCCCC2)cc1 (stereo not drawn) |
| 4.07 | CCCOc1ccc(C(=O)C(C)(C)CN2CCCCC2)cc1 |
| 3.72 | CCCOc1ccc(C(=O)CCN2CCCCC2)cc1 |
| 4.51 | CCCOc1cc(C)c(C(=O)C(C)(C)CN2CCCCC2)c(C)c1 |
